Tests used:
Test in all cases: selective drug sensitivity score (sDSS, relative to normal bone marrow) (sDSS (score)); higher = more potent and effective on the cell line relative to normal bone marrow cells
Conditions in all cases: 72 h
[1] = tested on: SUP-B15
[2] = tested on: TANOUE
[3] = tested on: REH
[4] = tested on: CCRF-CEM
[5] = tested on: COG-LL-394h
[6] = tested on: P30-OHKUBO
[7] = tested on: DND-41
[8] = tested on: RCH-ACV
[9] = tested on: COG-LL-317
[10] = tested on: NALL-1
[11] = tested on: MOLT-4
[12] = tested on: PEER
[13] = tested on: ALL-PO
[14] = tested on: KOPN-8
[15] = tested on: MN-60
[16] = tested on: 380
[17] = tested on: JURKAT
[18] = tested on: HPB-ALL
[19] = tested on: COG-LL-319h
[20] = tested on: MOLT-16
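Further: ALL cell lines in 384-well plates, five doses spanning 10,000-fold, each plate scaled between vehicle and 100 µmol/L benzalkonium chloride controls, sDSS an adapted area-under-curve metric.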

| Compound | selective drug sensitivity score [1] | selective drug sensitivity score [2] | selective drug sensitivity score [3] | selective drug sensitivity score [4] | selective drug sensitivity score [5] | selective drug sensitivity score [6] | selective drug sensitivity score [7] | selective drug sensitivity score [8] | selective drug sensitivity score [9] | selective drug sensitivity score [10] | selective drug sensitivity score [11] | selective drug sensitivity score [12] | selective drug sensitivity score [13] | selective drug sensitivity score [14] | selective drug sensitivity score [15] | selective drug sensitivity score [16] | selective drug sensitivity score [17] | selective drug sensitivity score [18] | selective drug sensitivity score [19] | selective drug sensitivity score [20] |
| --- | --- | --- | --- | --- | --- | --- | --- | --- | --- | --- | --- | --- | --- | --- | --- | --- | --- | --- | --- | --- |
| N.N.[Cl][Pt][Cl] [Cisplatin] (top concentration 100000 nM) | 17.4 | -3.16 | 10.8 | 15.3 | 0.54 | 16.7 | 9.54 | 20.5 | 23.2 | 6.84 | 16.2 | 2.64 | 8.44 | 21.7 | -0.56 | 7.54 | 13.1 | 7.14 | 19.4 | 17.7 |
| Cc1cc2c(F)c(Oc3ncnn4cc(OC[C@@H](C)O)c(C)c34)ccc2[nH]1 [Brivanib] (top concentration 1000 nM) | -0.04 | -0.04 | 0.96 | -0.04 | -0.04 | -0.04 | -0.04 | 1.96 | -0.04 | -0.04 | -0.04 | -0.04 | -0.04 | 0.16 | 2.76 | -0.04 | 1.46 | -0.04 | -0.04 | -0.04 |
| CCCCNc1ncc(C(=O)NCc2ccc(-n3ccnc3)cc2)c(NC2CCC(O)CC2)n1 (stereo not given) [UNC2881] (top concentration 2500 nM) | 3.9 | 0 | 0.2 | 0 | 0 | 0 | 0 | 0.4 | 0.6 | 0.6 | 0.4 | 1.5 | 7.2 | 0.2 | 0 | 0 | 0 | 0 | 0 | 0.2 |
| CNC(=O)[C@@H](NC(=O)[C@H](CC(C)C)[C@H](O)C(=O)NO)C(C)(C)C [Marimastat] (top concentration 10000 nM) | 4.52 | -1.28 | -1.28 | -0.48 | -0.88 | -0.18 | 0.12 | 2.02 | -1.28 | 4.12 | 0.62 | 1.42 | 5.22 | 7.22 | 1.02 | -1.28 | 2.42 | -1.08 | -1.28 | 2.82 |
| O=C1NC(=O)[C@@H](c2cn3c4c(cccc24)CCC3)[C@@H]1c1c[nH]c2ccccc12 [Tivantinib] (top concentration 1000 nM) | 2.88 | -1.32 | 7.78 | 3.98 | -0.42 | 6.58 | 0.78 | 4.28 | 3.68 | 4.78 | 3.28 | 4.38 | 2.08 | 3.08 | 3.78 | 6.18 | 3.98 | 2.88 | 3.58 | 3.48 |
| CC1(C)CCC(CN2CCN(c3ccc(C(=O)NS(=O)(=O)c4ccc(NCC5CCOCC5)c([N+](=O)[O-])c4)c(Oc4cnc5[nH]ccc5c4)c3)CC2)=C(c2ccc(Cl)cc2)C1 [Venetoclax] (top concentration 1000 nM) | 34.5 | -4.4 | 0.9 | -1.8 | 4.5 | 21 | 2.1 | -1.3 | 2.2 | 20.5 | 8.88e-16 | -2.9 | 30.2 | 28.9 | -4.4 | 29 | -3.3 | -0.9 | 28.8 | 6 |
| COc1cc(C)c(/C=C/C(C)=C/C=C/C(C)=C/C(=O)O)c(C)c1C [Acitretin] (top concentration 10000 nM) | -1.6 | -1.6 | -1.6 | -1 | -1.6 | -1.6 | -1.6 | -1.6 | -0.5 | -1.6 | -1.2 | -0.6 | -0.3 | 1.8 | -1.6 | 15.2 | -1.2 | -0.1 | -1.6 | -0.4 |
| CC(C)C[C@H](NC(=O)[C@@H](COC(C)(C)C)NC(=O)[C@H](Cc1ccc(O)cc1)NC(=O)[C@H](CO)NC(=O)[C@H](Cc1c[nH]c2ccccc12)NC(=O)[C@H](Cc1cnc[nH]1)NC(=O)[C@@H]1CCC(=O)N1)C(=O)N[C@@H](CCCNC(=N)N)C(=O)N1CCC[C@H]1C(=O)NNC(N)=O [Goserelin] (top concentration 10000 nM) | -0.06 | -0.06 | 0.14 | -0.06 | -0.06 | -0.06 | -0.06 | -0.06 | -0.06 | -0.06 | -0.06 | -0.06 | -0.06 | -0.06 | -0.06 | -0.06 | -0.06 | -0.06 | 4.84 | 0.14 |
| COc1cc(C(=O)O)ccc1NC(=O)[C@@H]1N[C@@H](CC(C)(C)C)[C@](C#N)(c2ccc(Cl)cc2F)[C@H]1c1cccc(Cl)c1F [Idasanutlin] (top concentration 10000 nM) | 29.3 | -12.5 | 8.16 | -9.94 | 4.96 | 20.8 | -11 | 21 | 28.4 | -8.44 | 20.7 | -9.04 | -12.5 | 25.7 | 0.46 | 23.5 | -7.74 | -8.54 | 17 | 21.3 |
